Measurements published in US20240043418A1, “1,3-DIHYDRO-2H-PYRROLO[3,4-C]PYRIDINE DERIVATIVES AS GABAA A5 RECEPTOR MODULATORS” (Richter Gedeon Nyrt., priority 2020, published 2024).

Columns and labels:
[1] = biological target: T1, human recombinant GABAA α5β3γ2 receptor (Homo sapiens (Human), UniProt P18507+P31644); assay: Receptor binding assay, [3H]Ro151788 displacement on membranes of HEK cells; details: [3H]Ro151788 0.5 nM, HEK cell membranes, 60 minutes at 4° C.; read-out: hGABAA α5 Ki
Experimental: The GABAA α5β3γ2 protein used for the receptor binding assay was derived from membranes produced from HEK cells (Millipore CYL3073) expressing the human recombinant GABAA α5β3γ2 receptor. Cells were stored and cultured in-house according to the instructions provided by the vendor (Millipor). Cell pellet was homogenized in 10 times modified Krebs Henseleit buffer (membrane preparation buffer): 20 mM Tris, 120 mM NaCl, 100 mM KCl, 25 mM CaCl2 and 25 mM MgCl2 pH=7.4 at 4° C. using Ultra Turrax (Janke&Kunkel) maximal speed for 15 seconds. The homogenate was centrifuged at 40,000 g for 30 minutes at 4° C. Supernatant was discarded and the resulting pellet was washed in membrane preparation buffer. Pellet was resuspended in membrane preparation buffer and aliquots of 1.4 mL ampulles were stored at −70° C. until use.
Receptor binding assays were performed in 96-well format in deep-well plates. For each 96-well plate one ampulle of membrane homogenate was thawed and diluted in binding buffer (50 mM Tris pH=7.4, 100 mM KCl) and 200 μL was dispensed into each well. Radioligand [^3H]Rol51788 (Perkin Elmer: NET757250UC) was prepared in binding buffer and added to each well in 50 μL volume to give final concentration of 0.5 nM. Test compounds in suitable concentration(s) were added in additional 50 μL. The final assay volume was 300 μL. Incubation was carried out for 60 minutes at 4° C. For non-specific binding 10 μM unlabeled diazepam was used. […] The plate was read in Microbeta (Perkin Elmer).
The specific radioligand binding (SB) was defined as the difference between total binding (Tot) and the non-specific binding (NSB). Results are expressed as a percent inhibition of specific binding obtained in the presence of compound of interest.
For IC50 and Ki determination a minimum of six drug concentrations in triplicate were used. […] Ki values (i.e. inhibition constants) were calculated using the Cheng-Prusoff equation Ki=IC50/[1+(L/KD)], where [L] is the radioligand concentration and KD the affinity of the labelled ligand for receptor. KD was determined from the Saturation analyses.

[2] = biological target: T1, human recombinant GABAA α5β3γ2 receptor; assay: Functional assay, QPatch automated patch clamp, modulation of GABA-evoked current; type: cell-based; details: tested at 10 μM; GABA 1 μM; HEK293 cells; percentage modulation of peak current
Experimental: (§1) Human HEK293 cell lines expressing GABAA α1β3γ2 and GABAA α5β3γ2 receptors were used in functional assays using the QPatch automated patch clamp system.
(§2) HEK293 cell lines stably expressing human recombinant GABAA α1β3γ2 receptor subunits (Millipore, CYL3073) or human recombinant GABAA α5β3γ2 receptor subunits (Millipore, CYL3053) were cultured in DMEM supplemented with 10% FBS (Gibco), passed two times per week and plated on Petri dishes previously coated with poly-d-lysine.
(§3) Automated whole-cell patch clamp recordings were made from cells 2-4 days after plating. Cells were detached using trypsin/EDTA (Sigma) treatment (2 minutes in 0.25% trypsin at 37° C.), then, after centrifugation (125G, 3 min, 2×), resuspended in a serum-free based media (Gibco, CHO-S-SFM-II) containing 12.5 mM HEPES, 1×penicillin-streptomycin-amphotericin (SigmaMix) and soybean trypsin inhibitor (Sigma, 0.04 mg/ml).
(§4) Cell suspension, as well as the extracellular solution (130 mM NaCl, 5 mM KCl, 5.1 mM HEPES, 4.9 mM HEPES-Na, 10 mM CaCl2), 2 mM MgCl2, 10 mM glucose and 0.1% DMSO, pH=7.35-7.4) and the intracellular solution (80 mM KCl, 50 mM KF, 36 mM KOH, 10 mM EGTA, 10 mM HEPES, 1.75 mM MgCl2, 0.5 mM CaCl2), 4 mM Na2ATP. 14 mM phosphocreatine, 50 U/ml creatine-phosphokinase, 0.3 mM GTP, pH=7.25-7.3) were added to the QPatch-HTX automated patch clamp system (Sophion) in single-cell mode at room temperature. Inward currents were evoked at a holding potential of −80 mV by 3-s-long applications of the control agonist GABA at sub-maximal effective concentration (1 μM) at 2-4-min intervals first in concentration-matched DMSO (0.1 or 0.3%) control solution for five times, then in the presence of the test compound for four times, finally in control solution again for three times (wash-out). At the end of the experiment 100 μM GABA was applied to saturate the GABA-response and to assess the efficacy of the control GABA application. Current signals were low-pass filtered at 100 Hz and recorded at a sampling rate of 1 kHz.
(§5) The percentage modulation was calculated from the comparison of GAB A-evoked peak current amplitudes in the presence and absence of the test compound.

[3] = biological target: human recombinant GABAA α1β3γ2 receptor (Homo sapiens (Human), UniProt P14867+P18507); assay: as above; type: cell-based; details: tested at 10 μM; GABA 1 μM; HEK293 cells; percentage modulation of peak current
human recombinant GABAA α1β3γ2 receptor, sequence (P14867 28-456): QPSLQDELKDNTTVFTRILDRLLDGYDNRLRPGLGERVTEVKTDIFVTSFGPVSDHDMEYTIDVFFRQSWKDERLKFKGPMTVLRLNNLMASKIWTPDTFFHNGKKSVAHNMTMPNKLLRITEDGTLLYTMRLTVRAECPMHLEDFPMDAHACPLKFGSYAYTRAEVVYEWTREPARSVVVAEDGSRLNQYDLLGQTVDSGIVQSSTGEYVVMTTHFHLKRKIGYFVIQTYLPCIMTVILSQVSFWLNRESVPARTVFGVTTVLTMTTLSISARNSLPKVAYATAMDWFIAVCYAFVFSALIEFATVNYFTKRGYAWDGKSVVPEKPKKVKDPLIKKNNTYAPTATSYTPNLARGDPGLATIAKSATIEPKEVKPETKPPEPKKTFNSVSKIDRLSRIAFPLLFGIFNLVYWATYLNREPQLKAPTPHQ
human recombinant GABAA α1β3γ2 receptor, sequence (P18507 40-475): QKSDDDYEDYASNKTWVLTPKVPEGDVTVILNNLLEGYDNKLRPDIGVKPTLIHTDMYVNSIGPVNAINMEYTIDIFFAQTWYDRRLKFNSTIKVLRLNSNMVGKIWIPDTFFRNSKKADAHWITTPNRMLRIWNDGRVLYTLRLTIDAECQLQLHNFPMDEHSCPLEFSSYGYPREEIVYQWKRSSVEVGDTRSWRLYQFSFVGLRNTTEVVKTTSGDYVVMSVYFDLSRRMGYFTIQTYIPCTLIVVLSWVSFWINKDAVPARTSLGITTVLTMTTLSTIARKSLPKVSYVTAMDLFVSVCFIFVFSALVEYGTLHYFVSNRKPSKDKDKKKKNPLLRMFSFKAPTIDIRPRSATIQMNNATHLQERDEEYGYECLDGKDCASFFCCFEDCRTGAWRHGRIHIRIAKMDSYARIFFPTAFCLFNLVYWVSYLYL
human recombinant GABAA α1β3γ2 receptor, sequence (P28472 26-473 partner): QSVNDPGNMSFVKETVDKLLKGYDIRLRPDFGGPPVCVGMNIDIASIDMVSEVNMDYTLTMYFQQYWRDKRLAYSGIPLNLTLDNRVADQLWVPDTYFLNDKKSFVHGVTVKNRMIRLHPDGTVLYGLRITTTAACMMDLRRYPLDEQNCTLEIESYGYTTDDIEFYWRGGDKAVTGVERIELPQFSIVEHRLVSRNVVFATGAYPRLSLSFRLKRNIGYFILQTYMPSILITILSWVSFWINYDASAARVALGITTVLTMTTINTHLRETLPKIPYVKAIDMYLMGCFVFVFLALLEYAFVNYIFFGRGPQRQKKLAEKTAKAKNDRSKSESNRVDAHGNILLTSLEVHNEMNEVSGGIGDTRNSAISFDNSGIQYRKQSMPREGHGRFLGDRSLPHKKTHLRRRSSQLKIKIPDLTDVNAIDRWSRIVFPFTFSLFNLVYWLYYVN
Experimental: as §1, §2, §3, §4, §5

T1 sequence (P31644 32-462): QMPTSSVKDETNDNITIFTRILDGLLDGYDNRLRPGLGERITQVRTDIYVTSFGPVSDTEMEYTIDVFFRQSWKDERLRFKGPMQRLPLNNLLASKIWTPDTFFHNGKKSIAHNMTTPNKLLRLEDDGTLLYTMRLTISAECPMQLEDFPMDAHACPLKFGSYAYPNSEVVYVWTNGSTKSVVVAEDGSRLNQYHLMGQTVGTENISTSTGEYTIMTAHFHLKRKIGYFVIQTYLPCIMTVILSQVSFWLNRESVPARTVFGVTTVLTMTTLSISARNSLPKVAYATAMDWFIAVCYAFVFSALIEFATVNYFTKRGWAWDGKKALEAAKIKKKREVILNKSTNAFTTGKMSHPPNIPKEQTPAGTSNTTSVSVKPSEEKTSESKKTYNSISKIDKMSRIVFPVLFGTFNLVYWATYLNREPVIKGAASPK
T1 sequence (P18507 40-475): as the sequence (P18507 40-475) above
T1 sequence (P28472 26-473 partner): as the sequence (P28472 26-473 partner) above

CC(=O)N1Cc2cnc(OCc3c(-c4ccc(F)cc4)noc3C)cc2C1 [Example 3, 1-(6-{[3-(4-fluorophenyl)-5-methyl-1,2-oxazol-4-yl]methoxy}-1,3-dihydro-2H-pyrrolo[3,4-c]pyridin-2-yl)ethanone]
Ki [1]: 0.9 nM
hGABAA α5 efficacy [2]: −44%
hGABAA α1 efficacy [3]: 13%

CC(=O)N1Cc2cnc(OCc3c(C)nnn3-c3ccc(F)cc3)cc2C1 [Example 1, 1-(6-{[1-(4-fluorophenyl)-4-methyl-1H-1,2,3-triazol-5-yl]methoxy}-1,3-dihydro-2H-pyrrolo[3,4-c]pyridin-2-yl)ethanone]
Ki [1]: 10 nM
hGABAA α5 efficacy [2]: −43%
hGABAA α1 efficacy [3]: −2%

CC(=O)N1Cc2cnc(OCc3c(-c4ccc(F)cc4)nnn3C)cc2C1 [Example 2, 1-(6-{[4-(4-fluorophenyl)-1-methyl-1H-1,2,3-triazol-5-yl]methoxy}-1,3-dihydro-2H-pyrrolo[3,4-c]pyridin-2-yl)ethanone]
Ki [1]: 32 nM
hGABAA α5 efficacy [2]: −47%
hGABAA α1 efficacy [3]: −6%
